According to PubChem BioAssay (NCI):
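Tested at 5 concentrations; 48 h exposure; 96-well plates; endpoints linearly interpolated, else capped at highest concentration. GI50 is the concentration that inhibits growth by half. TGI marks complete inhibition of growth.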

What was measured:
Assay in all cases: NCI anticancer screen, dose series, 48 h
KM12 colon = tested on: KM12 colon
NCI-H522 lung = tested on: NCI-H522 lung
NCI-H23 lung = tested on: NCI-H23 lung
SF-268 CNS = tested on: SF-268 CNS
OVCAR-4 ovarian = tested on: OVCAR-4 ovarian
SK-MEL-28 melanoma = tested on: SK-MEL-28 melanoma
SF-295 CNS = tested on: SF-295 CNS
SNB-19 CNS = tested on: SNB-19 CNS
HOP-92 NSCLC = tested on: HOP-92 NSCLC
MDA-MB-231 breast = tested on: MDA-MB-231 breast
MCF7 breast = tested on: MCF7 breast
SK-OV-3 ovarian = tested on: SK-OV-3 ovarian
IGROV1 ovarian = tested on: IGROV1 ovarian
HCT-116 colon = tested on: HCT-116 colon
NCI/ADR-RES ovarian = tested on: NCI/ADR-RES ovarian
UACC-62 melanoma = tested on: UACC-62 melanoma
SR leukemia = tested on: SR leukemia
EKVX NSCLC = tested on: EKVX NSCLC
SF-539 CNS = tested on: SF-539 CNS
DU-145 prostate = tested on: DU-145 prostate
MOLT-4 leukemia = tested on: MOLT-4 leukemia
OVCAR-5 ovarian = tested on: OVCAR-5 ovarian
SN12C renal = tested on: SN12C renal
UO-31 renal = tested on: UO-31 renal
SK-MEL-5 melanoma = tested on: SK-MEL-5 melanoma
U251 CNS = tested on: U251 CNS
RXF 393 renal = tested on: RXF 393 renal
786-0 renal = tested on: 786-0 renal
A498 renal = tested on: A498 renal
CCRF-CEM leukemia = tested on: CCRF-CEM leukemia
TK-10 renal = tested on: TK-10 renal
UACC-257 melanoma = tested on: UACC-257 melanoma
SNB-75 CNS = tested on: SNB-75 CNS
A549 NSCLC = tested on: A549 NSCLC
M14 melanoma = tested on: M14 melanoma
ACHN renal = tested on: ACHN renal
SK-MEL-2 melanoma = tested on: SK-MEL-2 melanoma
MALME-3M melanoma = tested on: MALME-3M melanoma
COLO 205 colon = tested on: COLO 205 colon
SW-620 colon = tested on: SW-620 colon
RPMI-8226 leukemia = tested on: RPMI-8226 leukemia
LOX IMVI melanoma = tested on: LOX IMVI melanoma
K-562 leukemia = tested on: K-562 leukemia
PC-3 prostate = tested on: PC-3 prostate
MDA-MB-435 = tested on: MDA-MB-435
HCT-15 colon = tested on: HCT-15 colon
NCI-H460 lung = tested on: NCI-H460 lung
CAKI-1 renal = tested on: CAKI-1 renal
HOP-62 NSCLC = tested on: HOP-62 NSCLC
OVCAR-3 ovarian = tested on: OVCAR-3 ovarian
HS 578T breast = tested on: HS 578T breast
HL-60(TB) leukemia = tested on: HL-60(TB) leukemia
OVCAR-8 ovarian = tested on: OVCAR-8 ovarian
NCI-H226 lung = tested on: NCI-H226 lung
T-47D breast = tested on: T-47D breast
HCC-2998 colon = tested on: HCC-2998 colon
BT-549 breast = tested on: BT-549 breast
HT29 colon = tested on: HT29 colon

## COc1cc2c(c3nc4ccccc4nc13)-c1ccc(SC)c(=O)cc1[C@@H](NC(C)=O)CC2
KM12 colon
  TGI: > 100 µM
NCI-H522 lung
  TGI: 0.151 µM
NCI-H23 lung
  TGI: 0.066 µM
SF-268 CNS
  TGI: > 100 µM
OVCAR-4 ovarian
  TGI: > 69.2 µM
SK-MEL-28 melanoma
  TGI: > 100 µM
SF-295 CNS
  TGI: > 100 µM
SNB-19 CNS
  TGI: > 100 µM
HOP-92 NSCLC
  TGI: > 75.1 µM
MDA-MB-231 breast
  TGI: > 100 µM
MCF7 breast
  TGI: > 100 µM
SK-OV-3 ovarian
  TGI: > 100 µM
IGROV1 ovarian
  TGI: 0.528 µM
HCT-116 colon
  TGI: > 100 µM
NCI/ADR-RES ovarian
  TGI: 53 µM
UACC-62 melanoma
  TGI: > 100 µM
SR leukemia
  TGI: > 100 µM
EKVX NSCLC
  TGI: 0.795 µM
SF-539 CNS
  TGI: 0.0603 µM
DU-145 prostate
  TGI: 0.838 µM
MOLT-4 leukemia
  TGI: > 100 µM
OVCAR-5 ovarian
  TGI: > 100 µM
SN12C renal
  TGI: > 100 µM
UO-31 renal
  TGI: > 100 µM
SK-MEL-5 melanoma
  TGI: > 100 µM
U251 CNS
  TGI: > 100 µM
RXF 393 renal
  TGI: > 100 µM
786-0 renal
  TGI: > 100 µM
A498 renal
  TGI: > 65.1 µM
CCRF-CEM leukemia
  TGI: > 100 µM
TK-10 renal
  TGI: > 100 µM
UACC-257 melanoma
  TGI: > 100 µM
SNB-75 CNS
  TGI: > 100 µM
A549 NSCLC
  TGI: > 100 µM
M14 melanoma
  TGI: > 100 µM
ACHN renal
  TGI: > 100 µM
SK-MEL-2 melanoma
  TGI: > 100 µM
MALME-3M melanoma
  TGI: 0.0861 µM
COLO 205 colon
  TGI: 0.419 µM
SW-620 colon
  TGI: > 100 µM
RPMI-8226 leukemia
  TGI: > 100 µM
LOX IMVI melanoma
  TGI: > 100 µM
K-562 leukemia
  TGI: > 100 µM
PC-3 prostate
  TGI: > 100 µM
MDA-MB-435
  TGI: 0.0693 µM
HCT-15 colon
  TGI: > 21.7 µM
NCI-H460 lung
  TGI: > 100 µM
CAKI-1 renal
  TGI: > 100 µM
HOP-62 NSCLC
  TGI: > 100 µM
OVCAR-3 ovarian
  TGI: > 100 µM
HS 578T breast
  TGI: 0.0543 µM

## CC(=O)OCC1OC(n2c(-c3ccc(C)cc3)cc(-c3ccco3)c(C#N)c2=O)C(OC(C)=O)C(OC(C)=O)C1OC(C)=O (configuration not stated)
HL-60(TB) leukemia
  TGI: > 100 µM
SNB-75 CNS
  TGI: > 100 µM

## Cc1c2ccccc2c(/C=N/NC(=O)CSCC(=O)N/N=C/c2c3ccccc3c(C)c3ccccc23)c2ccccc12
KM12 colon
  TGI: > 100 µM
NCI-H522 lung
  GI50: > 100 µM
  TGI: > 100 µM
NCI-H23 lung
  TGI: 50.7 µM
SF-268 CNS
  TGI: > 75.3 µM
OVCAR-4 ovarian
  TGI: > 100 µM
SK-MEL-28 melanoma
  TGI: > 100 µM
SF-295 CNS
  TGI: 49.9 µM
SNB-19 CNS
  TGI: > 100 µM
HOP-92 NSCLC
  TGI: 38.6 µM
MDA-MB-231 breast
  TGI: > 75 µM
MCF7 breast
  TGI: > 78.7 µM
SK-OV-3 ovarian
  TGI: > 100 µM
IGROV1 ovarian
  TGI: > 100 µM
HCT-116 colon
  TGI: > 100 µM
NCI/ADR-RES ovarian
  TGI: > 100 µM
UACC-62 melanoma
  TGI: > 100 µM
EKVX NSCLC
  TGI: > 100 µM
SF-539 CNS
  TGI: > 56.9 µM
HL-60(TB) leukemia
  TGI: > 100 µM
OVCAR-8 ovarian
  TGI: > 86.4 µM
DU-145 prostate
  TGI: > 100 µM
MOLT-4 leukemia
  TGI: > 87.8 µM
OVCAR-5 ovarian
  TGI: > 100 µM
SN12C renal
  TGI: > 100 µM
UO-31 renal
  TGI: > 100 µM
SK-MEL-5 melanoma
  TGI: > 100 µM
U251 CNS
  TGI: > 57.6 µM
RXF 393 renal
  TGI: 54.9 µM
NCI-H226 lung
  TGI: > 61.1 µM
786-0 renal
  TGI: > 52.8 µM
A498 renal
  TGI: > 93.3 µM
CCRF-CEM leukemia
  TGI: > 72.4 µM
T-47D breast
  TGI: > 82.4 µM
TK-10 renal
  TGI: > 95.4 µM
UACC-257 melanoma
  TGI: > 100 µM
SNB-75 CNS
  TGI: > 73.3 µM
A549 NSCLC
  TGI: > 100 µM
M14 melanoma
  TGI: > 100 µM
ACHN renal
  TGI: > 89 µM
HCC-2998 colon
  TGI: 65.1 µM
SK-MEL-2 melanoma
  TGI: > 100 µM
MALME-3M melanoma
  TGI: 97.3 µM
COLO 205 colon
  GI50: > 100 µM
  TGI: > 100 µM
SW-620 colon
  TGI: > 100 µM
RPMI-8226 leukemia
  TGI: 51.9 µM
LOX IMVI melanoma
  TGI: > 100 µM
K-562 leukemia
  TGI: > 100 µM
BT-549 breast
  TGI: > 90.1 µM
PC-3 prostate
  TGI: > 67.5 µM
MDA-MB-435
  TGI: > 100 µM
HCT-15 colon
  TGI: > 100 µM
HT29 colon
  TGI: > 100 µM
NCI-H460 lung
  TGI: > 100 µM
CAKI-1 renal
  TGI: > 100 µM
HOP-62 NSCLC
  TGI: 36.1 µM
OVCAR-3 ovarian
  TGI: > 80.9 µM
HS 578T breast
  TGI: > 100 µM
